According to patent US20260034092A1, “BIOCIDAL COMPOSITION” (priority 2022, published 2026):

Experiments:
[1] = system: Pseudomonas aeruginosa (ATCC 15442); assay: Minimum Inhibitory Concentration (MIC) test; conditions: incubated 48 h at 37° C.
[2] = system: bacterial Biofilm (Listeria monocytogenes ATCC 35152, Clostridium sporogenes ATCC 19404, Candida albicans ATCC 26555 and Escherichia col); assay: MIC test against bacterial Biofilm; format: cell-based; conditions: incubated 48 h at 37° C.

Structure (SMILES)	Minimum inhibitory concentration (MIC) [1] [%]	Minimum inhibitory concentration (MIC) [2] [%]
Cc1ccc(C(C)C)cc1O [Carvacrol, 5-Isopropil-2-metilfenol]	0.89	1.01
CC12CCC(CC1)C(C)(C)O2 [Eucalyptol, 1,3,3-Trimethyl-2-oxabicyclo[2.2.2]octane]	1.09	1.21
CC1CCC(C(C)C)C(O)C1 (stereo not shown) [Menthol, 5-Methyl-2-(propan-2-yl)cyclohexan-1-ol]	5.32	5.98
CC1=CCC(O)(C(C)C)CC1 (stereo not shown) [Terpinen-4-ol, 4-Methyl-1-(propan-2-yl)cyclohex-3-en-1-ol]	1.64	1.96
Cc1ccc(C(C)C)c(O)c1 [Thymol, 5-Methyl-2-(propan-2-yl) phenol]	2.11	2.29
